Each block holds one compound with its values, some of them ahead of it. Active and inactive are the calls of the source.
Key:
[1] = target: T1, Rac GTPase-activating protein 1 (Homo sapiens, UniProt Q9H0H5); assay: MgcRacGAP GTPase-activating activity inhibitors, confirmation, biochemical, ADP Hunter fluorescence, primary and confirmatory (AID 624330); format: functional
T1 sequence (Q9H0H5 whole entry): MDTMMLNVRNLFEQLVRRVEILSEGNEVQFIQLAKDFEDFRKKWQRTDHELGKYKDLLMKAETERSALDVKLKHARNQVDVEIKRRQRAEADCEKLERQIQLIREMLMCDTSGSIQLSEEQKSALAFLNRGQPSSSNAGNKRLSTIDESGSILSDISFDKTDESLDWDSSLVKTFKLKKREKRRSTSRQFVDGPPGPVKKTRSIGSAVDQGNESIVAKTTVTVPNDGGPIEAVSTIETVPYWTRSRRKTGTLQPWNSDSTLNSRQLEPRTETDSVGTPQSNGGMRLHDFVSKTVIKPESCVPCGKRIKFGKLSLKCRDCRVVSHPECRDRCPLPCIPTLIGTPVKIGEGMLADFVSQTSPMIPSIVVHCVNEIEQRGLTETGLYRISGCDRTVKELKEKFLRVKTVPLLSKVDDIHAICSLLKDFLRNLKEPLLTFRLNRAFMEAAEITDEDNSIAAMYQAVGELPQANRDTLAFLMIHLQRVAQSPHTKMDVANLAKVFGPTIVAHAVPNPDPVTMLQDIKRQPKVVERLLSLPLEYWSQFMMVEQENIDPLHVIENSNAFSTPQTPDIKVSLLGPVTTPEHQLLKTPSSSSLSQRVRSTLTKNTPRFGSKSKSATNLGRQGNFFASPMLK

[2] = target: T2, RNA-binding protein pos-1 (Caenorhabditis elegans, UniProt G5EF15); assay: inhibitors of POS-1/mex-3 RNA binding, dose response, biochemical, fluorescence polarization (AID 1964);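 also: purified POS-1 fused to maltose binding protein made in E. coli; potency of compounds blocking POS-1 binding to fluorescent RNA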
T2 sequence (G5EF15 whole entry): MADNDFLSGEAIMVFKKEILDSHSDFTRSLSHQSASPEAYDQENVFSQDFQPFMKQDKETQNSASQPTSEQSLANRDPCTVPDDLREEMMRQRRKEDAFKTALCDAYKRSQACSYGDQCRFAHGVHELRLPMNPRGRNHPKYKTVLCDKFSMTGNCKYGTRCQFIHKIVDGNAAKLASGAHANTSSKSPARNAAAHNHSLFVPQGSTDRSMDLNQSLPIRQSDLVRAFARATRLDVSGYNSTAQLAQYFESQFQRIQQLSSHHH

[3] = target: T3, Zinc finger protein mex-5 (Caenorhabditis elegans, UniProt Q9XUB2); assay: MEX-5/TCR-2 RNA interaction inhibitors, dose response, biochemical, C. elegans, fluorescence polarization (AID 1960)
T3 sequence (Q9XUB2 whole entry): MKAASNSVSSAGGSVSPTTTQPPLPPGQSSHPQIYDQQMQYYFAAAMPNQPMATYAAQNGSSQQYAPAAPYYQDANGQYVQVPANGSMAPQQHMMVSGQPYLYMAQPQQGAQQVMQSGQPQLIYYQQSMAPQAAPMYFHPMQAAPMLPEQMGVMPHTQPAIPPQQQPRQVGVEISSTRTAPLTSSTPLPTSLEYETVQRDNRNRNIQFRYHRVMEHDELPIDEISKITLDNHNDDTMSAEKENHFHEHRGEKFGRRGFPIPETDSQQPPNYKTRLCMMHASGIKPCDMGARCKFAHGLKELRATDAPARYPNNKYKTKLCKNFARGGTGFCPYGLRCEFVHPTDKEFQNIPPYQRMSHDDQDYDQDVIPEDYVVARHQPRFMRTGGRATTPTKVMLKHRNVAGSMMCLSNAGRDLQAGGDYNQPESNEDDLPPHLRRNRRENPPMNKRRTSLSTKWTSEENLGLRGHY

[4] = HEp-2 cell cytotoxicity, dose response, cytotoxicity control for RSV inhibitor project, HTS (AID 2410); format: functional; settings: human respiratory syncytial virus
Cytochrome P450 2C19 = Cytochrome P450 2C19 (Homo sapiens, UniProt P33261); assay: Cytochrome panel assay with activity outcomes. Panel member name: p450-cyp2c19 Compounds with AC50 equal or less than 10 uM are considered active; format: functional
Cytochrome P450 2D6 = Cytochrome P450 2D6 (Homo sapiens, UniProt P10635);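 also: CYP2D6 member of a cytochrome P450 panel assay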
Cytochrome P450 1A2 = target: T4, Cytochrome P450 1A2 (Homo sapiens, UniProt P05177);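 also: PubChem cytochrome P450 panel assay, CYP1A2 panel member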
T4 sequence (P05177 whole entry): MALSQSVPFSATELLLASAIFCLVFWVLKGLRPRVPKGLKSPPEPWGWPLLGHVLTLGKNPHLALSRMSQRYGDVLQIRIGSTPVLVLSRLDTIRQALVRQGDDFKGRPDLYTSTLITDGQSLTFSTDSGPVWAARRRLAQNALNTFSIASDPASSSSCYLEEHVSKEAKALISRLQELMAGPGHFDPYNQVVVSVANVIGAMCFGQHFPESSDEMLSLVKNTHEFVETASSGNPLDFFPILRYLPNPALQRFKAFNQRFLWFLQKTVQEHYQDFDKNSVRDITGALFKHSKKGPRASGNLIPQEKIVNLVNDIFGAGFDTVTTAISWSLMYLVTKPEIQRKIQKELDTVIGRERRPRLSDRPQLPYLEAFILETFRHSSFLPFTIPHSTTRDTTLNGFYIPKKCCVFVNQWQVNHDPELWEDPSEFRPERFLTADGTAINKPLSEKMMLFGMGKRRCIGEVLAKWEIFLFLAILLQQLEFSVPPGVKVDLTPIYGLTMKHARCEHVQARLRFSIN

[5] = inhibitors of intracellular T. cruzi replication, confirmation, NIH3T3 host cells, beta-gal luminescence (AID 2044); format: functional, cell-based;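 also: intracellular parasites grown in NIH/3T3 mouse fibroblasts as host cells; luminescent beta-galactosidase reporter signal from transgenic T. cruzi replicating inside host cells; inhibitors lower the luminescence signal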
[6] = cytotoxicity toward NIH3T3 fibroblasts, dose response, counter-screen, cell-based, ATP luminescence, mouse fibroblasts (AID 2010); format: functional;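 also: cells exposed to compound for about 90 hours before reading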
[7] = test system: Streptococcus sp. 'group A'; assay: growth inhibition of control SK(-) GAS strain, dose response, counter-screen for streptokinase expression inhibitor project, luminescence, kanamycin, BacTiterGlo, confirmation (AID 1900); format: functional, organism-based
Streptococcus = assay: Group A Streptococcus viability loss, dose response, counter-screen for streptokinase expression inhibitor project, luminescence, BacTiterGlo (AID 1915); format: functional, organism-based;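 also: potency for reduction of bacterial viability or growth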

Chain of Cytochrome P450 2D6 (P10635 whole entry): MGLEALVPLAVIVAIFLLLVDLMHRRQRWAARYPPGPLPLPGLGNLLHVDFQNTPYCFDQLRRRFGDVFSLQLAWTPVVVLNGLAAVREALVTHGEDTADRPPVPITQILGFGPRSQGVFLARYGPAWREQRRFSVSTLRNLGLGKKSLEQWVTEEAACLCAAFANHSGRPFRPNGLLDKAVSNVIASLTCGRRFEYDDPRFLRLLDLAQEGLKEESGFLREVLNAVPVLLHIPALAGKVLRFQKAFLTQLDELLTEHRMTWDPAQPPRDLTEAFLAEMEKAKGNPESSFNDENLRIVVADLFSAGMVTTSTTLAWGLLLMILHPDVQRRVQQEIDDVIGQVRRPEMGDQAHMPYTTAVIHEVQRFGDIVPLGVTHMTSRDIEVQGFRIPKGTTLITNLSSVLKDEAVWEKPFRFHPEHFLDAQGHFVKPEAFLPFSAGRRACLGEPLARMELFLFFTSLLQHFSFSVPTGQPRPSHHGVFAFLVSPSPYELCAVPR
Chain of Cytochrome P450 2C19 (P33261 whole entry): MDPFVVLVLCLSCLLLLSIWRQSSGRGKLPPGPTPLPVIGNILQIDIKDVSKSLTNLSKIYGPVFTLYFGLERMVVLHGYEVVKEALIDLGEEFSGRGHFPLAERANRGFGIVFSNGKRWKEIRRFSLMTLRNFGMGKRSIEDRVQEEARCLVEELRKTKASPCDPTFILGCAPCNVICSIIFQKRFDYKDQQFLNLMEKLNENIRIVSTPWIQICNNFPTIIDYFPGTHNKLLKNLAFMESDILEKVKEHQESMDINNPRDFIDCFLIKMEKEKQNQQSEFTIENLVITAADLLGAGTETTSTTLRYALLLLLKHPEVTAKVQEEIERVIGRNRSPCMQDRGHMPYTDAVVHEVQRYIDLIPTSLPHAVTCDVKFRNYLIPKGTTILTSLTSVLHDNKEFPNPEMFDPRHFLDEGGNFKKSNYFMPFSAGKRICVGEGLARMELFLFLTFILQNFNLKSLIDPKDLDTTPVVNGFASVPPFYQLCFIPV

Compound: CCOc1cc(/C=N\NC(=O)c2c(C)nc3ccccn23)ccc1O
IC50 [1]: 76 µM (active)

Compound: CN1CCC2(CC1)C(C#N)=C(N)NC(S)=C2C#N
EC50 [2]: 8.05 µM (active) | EC50 [3]: 8.53 µM (active)

Compound: Cc1c(C(=O)NCCSCc2c(F)cccc2Cl)cnn1-c1ccc(Cl)cc1
CC50 [4]: 16.8 µM (active)

Compound: COc1ccc(-n2c(N)c(C(=O)Nc3c(C)n(C)n(-c4ccccc4)c3=O)c3nc4ccccc4nc32)cc1
CC50 [4]: > 50 µM (active)

Compound: COc1ccc(CCNC(=O)c2ccc3c(=O)n(Cc4ccco4)c(=S)[nH]c3c2)cc1OC
AC50 (Cytochrome P450 2C19; read-out: AC50): 7.94 µM (inconclusive)

Compound: Cc1ccc(S(=O)(=O)c2c(N)n(NC(=O)c3ccccc3C)c3nc4ccccc4nc23)cc1
CC50 [4]: 22.9 µM (active)

Compound: COc1ccc(/C=C2\SC(=S)N(CCC(=O)NC3CCCC3)C2=O)cc1OC
EC50 [2]: > 300 µM (not active) | EC50 [3]: 153 µM (active)

Compound: O=S(=O)(c1ccc(Cl)s1)N1CCc2ccccc2C1
AC50 (Cytochrome P450 2D6): 31.6 µM (inconclusive) | AC50 (Cytochrome P450 1A2): 25.1 µM (inconclusive)

Compound: CCO[C@H]1OC(C(=O)Nc2ccccc2)=C[C@@H](c2ccc(C(F)(F)F)cc2)[C@@H]1CCCO
CC50 [4]: 17.5 µM (active)

Compound: COc1cccc(-c2nc(NCCN3CCOCC3)c3ccccc3n2)c1
AC50 (Cytochrome P450 2C19; read-out: AC50): 20 µM (inconclusive)

Compound: Nc1ccccc1Nc1cc(-c2ccccc2)nn1-c1cccc(Cl)c1
CC50 [4]: 26.3 µM (active) | EC50 [5]: 5.32 µM (active) | EC50 [6]: > 60 µM (not active)

Compound: CC1(OC(=O)c2ccco2)C(=O)C=C2C=C(c3ccc(C#N)cc3)OC=C2C1=O (stereo not drawn)
EC50 [2]: 52.2 µM (active) | EC50 [3]: 28.9 µM (active)

Compound: COc1cc2[nH]c(C(=O)NN)c(N)c2cc1OC
EC50 [2]: 117 µM (active) | EC50 [3]: 18.5 µM (active)

Compound: CCCN(Cc1nnc(-c2ccccc2Cl)o1)C(=O)c1oc2ccccc2c1C
CC50 [4]: 19.6 µM (active)

Compound: Cc1ccccc1C(=O)Nc1cc(-c2cc(C(C)(C)C)oc2C)nn1C
CC50 [4]: 19.7 µM (active)

Compound: CCCCCCCNC(=O)C1(CC2CC(c3ccc(Cl)cc3)=NO2)CCN(C(=O)C2(C)CC2)CC1 (stereo not drawn)
CC50 [4]: 13.5 µM (active)

Compound: COc1ccc(N2CCN(c3ncccn3)CC2)cc1
IC50 [1]: 82.9 µM (active)

Compound: Cc1cc(C)nc(N/N=C/c2c[nH]c3ccccc23)n1
IC50 [1]: 63.2 µM (active)

Compound: CCc1c(C(=O)NCc2ccccc2Cl)[nH]c(C)c1C(C)=O
CC50 [4]: > 50 µM (active)

Compound: COC(=O)c1cccc(-n2c(C)cc(C=O)c2C)c1C
EC50 [2]: > 300 µM (not active) | EC50 [3]: > 300 µM (not active)

Compound: O=[N+]([O-])c1ccc(/C=N/Nc2nc(N3CCCCCC3)nc(N3CCCCCC3)n2)o1
CC50 [4]: 11.6 µM (active) | EC50 [7]: 0.504 µM (active) | EC50 [5]: 0.197 µM (active) | EC50 [6]: > 60 µM (not active) | EC50 (Streptococcus): 2.35 µM (active)

Compound: N#CC1=C(N)OC2=C(CC/C2=C\c2ccc(F)cc2)C1c1ccc(F)cc1 (stereo not drawn)
CC50 [4]: 8.44 µM (active)

Compound: Cc1ccc2cccc(S(=O)(=O)N3CCN(c4cccc(Cl)c4)CC3)c2n1
CC50 [4]: 46.9 µM (active)

Compound: Cc1ccc(NC(=O)/C(=C\c2ccc3c(c2)OCO3)NC(=O)c2ccco2)cc1
AC50 (Cytochrome P450 2D6): 15.8 µM (inconclusive) | AC50 (Cytochrome P450 1A2): 11.2 µM (inconclusive)

Compound: c1csc(CNc2ccc3c(c2)OCCO3)c1
IC50 [1]: 46.4 µM (active)

Compound: Clc1ccc(OCC#CCN2CCCCCC2)cc1
IC50 [1]: 184 µM (active)

Compound: Clc1ccccc1C(Nc1ncccn1)Nc1ncccn1
AC50 (Cytochrome P450 2C19): inconclusive

Compound: CC(C)(C)OC(=O)NCCCCCNC(=O)c1[nH]cnc1C(=O)N[C@@H](Cc1ccccc1)C(=O)OCc1ccccc1
CC50 [4]: 12.5 µM (active)

Compound: CC(C)CC(=O)C[C@H](O)C(Cl)(Cl)Cl
AC50 (Cytochrome P450 2C19; read-out: AC50): 7.94 µM (inconclusive)

Compound: c1ccc2c(NC3CCNCC3)nc(-c3ccoc3)nc2c1
AC50 (Cytochrome P450 2D6): 7.94 µM (inconclusive)

The remaining lines, values ahead:

IC50 [1]: 45.1 µM (active)
Compound: Cc1ccc(CCC(=O)Nc2ccc(N(C)C)cc2)o1

AC50 (Cytochrome P450 2D6): 5.01 µM (inconclusive) | AC50 (Cytochrome P450 1A2): 14.1 µM (inconclusive)
Compound: O=C(C1CCCN(S(=O)(=O)c2cccc3nsnc23)C1)N1CC=C(c2ccccc2)CC1 (stereo not drawn)

EC50 [2]: > 300 µM (not active) | EC50 [3]: > 300 µM (not active)
Compound: CC(C)Cc1nnc(NC(=O)CCC(=O)N2CC(C)CC(C)C2)s1 (stereo not drawn)

AC50 (Cytochrome P450 2C19; read-out: AC50): 14.1 µM (inconclusive)
Compound: NC(=O)C1CCN(C(=O)CN2C(=O)c3ccccc3S2(=O)=O)CC1

IC50 [1]: 69.6 µM (active)
Compound: CCOc1cc(/C=N/NC(=O)CCCC(=O)NC2CCCCC2)ccc1O

EC50 [2]: > 300 µM (not active) | EC50 [3]: > 300 µM (not active)
Compound: Cc1ccc2nc3c(cc(C(=O)NCC4CCCO4)c(=N)n3C3CCCC3)c(=O)n2c1 (stereo not drawn)

IC50 [1]: 127 µM (active)
Compound: COc1cc(CN2CCC(C(=O)NC3CCCC3)CC2)cc(Br)c1O

AC50 (Cytochrome P450 2C19; read-out: AC50): 28.2 µM (inconclusive) | AC50 (Cytochrome P450 2D6): 25.1 µM (inconclusive)
Compound: COc1cc(C(=O)NCCC(=O)NCc2ccc3c(c2)OCO3)cc(OC)c1OC

AC50 (Cytochrome P450 2D6): 20 µM (inconclusive) | AC50 (Cytochrome P450 1A2): 31.6 µM (inconclusive)
Compound: O=C1c2ccccc2S(=O)(=O)N1CCCCN1CCN(c2ncccn2)CC1 [IPSAPIRONE]

IC50 [1]: 90.9 µM (active)
Compound: CCN(CC)c1ccc(NC(=O)CN(C)Cc2cccs2)cc1

AC50 (Cytochrome P450 2C19): inconclusive
Compound: O=C(Nc1cccc(F)c1)N1CC2(CCN(C(=O)c3ccncc3)CC2)C1

AC50 (Cytochrome P450 2C19; read-out: AC50): 39.8 µM (inconclusive) | AC50 (Cytochrome P450 1A2): 28.2 µM (inconclusive)
Compound: O=C(O)CSc1ncnc2sc3c(c12)CCC3

AC50 (Cytochrome P450 2C19; read-out: AC50): 5.01 µM (inconclusive)
Compound: C#CCCCO/N=C1/C[C@@H](O)[C@@H](O)[C@@H]2[C@@H]3C(=O)N(Cc4ccccc4)C(=O)[C@H]3CC[C@H]12

AC50 (Cytochrome P450 2D6): 0.01 µM (inconclusive)
Compound: Cc1ccccc1NC(=O)CN1CCC(n2nnc3ccccc32)CC1

Source: ChEMBL document CHEMBL1201862, “PubChem BioAssay data set” (2004)
